Source: patent US20180186814A1, “TRICYCLIC COMPOUND HAVING SULFINYL OR SULFONYL” (Shionogi & Co., Ltd., priority 2015, published 2018)
In brackets after ≈: the same amount, converted by molar mass.

How the values were obtained:
Type in all cases: cell-based
E. cloacae ATCC13047 = experiment: MIC by microbroth dilution (CLSI), strain No. 1; details: E. cloacae ATCC13047, AmpC, ceftazidime-resistant, cefepime-sensitive, cation-adjusted Mueller-Hinton broth; for MIC: Enterobacter cloacae, read-out: minimum inhibitory concentration (MIC), Strain No. 1
Description: (§1) The minimum inhibitory concentration (MIC) was measured by the microbroth dilution method in accordance with the procedures recommended by CLSI (Clinical and Laboratory Standards Institute) using 1×10^5 CFU/mL as an inoculum dose and a cation-adjusted Mueller-Hinton broth as a test medium.
(§2) The strains used are as described in the table below.

K. pneumoniae SR01453 = experiment: MIC by microbroth dilution (CLSI), strain No. 3; details: K. pneumoniae SR01453, NDM-1, MBL-producing strain, carbapenem-resistant, cation-adjusted Mueller-Hinton broth; for MIC: Klebsiella pneumoniae, read-out: minimum inhibitory concentration (MIC), Strain No. 3
Description: as §1, §2

K. pneumoniae NCTC13443 = experiment: MIC by microbroth dilution (CLSI), strain No. 4; details: K. pneumoniae NCTC13443, NDM-1, MBL-producing strain, carbapenem-resistant, cation-adjusted Mueller-Hinton broth; for MIC: Klebsiella pneumoniae, read-out: minimum inhibitory concentration (MIC), Strain No. 4
Description: as §1, §2

E. cloacae SR36276 = experiment: MIC by microbroth dilution (CLSI), strain No. 5; details: E. cloacae SR36276, AmpC, highly AmpC-producing strain, ceftazidime-resistant, cefepime-sensitive, cation-adjusted Mueller-Hinton broth; for MIC: Enterobacter cloacae, read-out: minimum inhibitory concentration (MIC), Strain No. 5
Description: as §1, §2

E. coli SR09613 = experiment: MIC by microbroth dilution (CLSI), strain No. 6; details: for minimum inhibitory concentration (MIC), Strain No. 6: E. coli SR09613, CMY-2 type, plasmid AmpC-producing strain, ceftazidime-resistant, cefepime-sensitive, cation-adjusted Mueller-Hinton broth; for MIC: Escherichia coli, SR09613, read-out: minimum inhibitory concentration (MIC), Strain No. 6
Description: as §1, §2

K. pneumoniae SR01358 = experiment: MIC by microbroth dilution (CLSI), strain No. 2; details: Klebsiella pneumoniae; K. pneumoniae SR01358, KPC-2; KPC-producing strain; cation-adjusted Mueller-Hinton broth; read-out: minimum inhibitory concentration (MIC), Strain No. 2
Description: as §1, §2

Row | SMILES | MIC (E. cloacae ATCC13047) [µg/mL] | MIC (K. pneumoniae SR01453) [µg/mL] | MIC (K. pneumoniae NCTC13443) [µg/mL] | MIC (E. cloacae SR36276) [µg/mL] | also measured
1 | Nc1nc(/C(=N/OCC(=O)O)C(=O)N[C@@H]2C(=O)N3[C@@H]2[SH](O)C[C@@H]2CC(=O)O[C@@]23C(=O)O)c(F)s1 (stereo partly shown) [Compound I-036] |  |  |  |  | minimum inhibitory concentration (MIC), Strain No. 1 (E. cloacae ATCC13047): 0.5 µg/mL (≈ 0.959 µM); minimum inhibitory concentration (MIC), Strain No. 3 (K. pneumoniae SR01453): 1 µg/mL (≈ 1.92 µM); minimum inhibitory concentration (MIC), Strain No. 4 (K. pneumoniae NCTC13443): 8 µg/mL (≈ 15.3 µM); minimum inhibitory concentration (MIC), Strain No. 5 (E. cloacae SR36276): 1 µg/mL (≈ 1.92 µM)
2 | Nc1nc(/C(=N/OCc2cc(O)no2)C(=O)N[C@@H]2C(=O)N3[C@@H]2[S@H](O)C[C@@H]2CC(=O)O[C@@]23C(=O)[O-])cs1.[Na+] [Compound I-063] |  |  |  |  | minimum inhibitory concentration (MIC), Strain No. 6 (E. coli SR09613): 4 µg/mL
3 | CO/N=C(\C(=O)N[C@@H]1C(=O)N2[C@@H]1[S@@+]([O-])C[C@@H]1CC(=O)O[C@@]12C(=O)[O-])c1csc(N)n1.[Na+] [Compound I-023] | 0.25 | 0.25 | 4 | 1 | MIC (K. pneumoniae SR01358): 1 µg/mL
4 | C[n+]1cccc(CO/N=C(\C(=O)N[C@@H]2C(=O)N3[C@@H]2[S@@+]([O-])C[C@@H]2CC(=O)O[C@@]23C(=O)[O-])c2csc(N)n2)c1 [Compound I-043] |  | 2 (≈ 3.65 µM) |  |  | MIC (E. coli SR09613): 2 µg/mL (≈ 3.65 µM)
5 | Nc1nc(/C(=N/OCc2ccncc2)C(=O)N[C@@H]2C(=O)N3[C@@H]2[S@@+]([O-])C[C@@H]2CC(=O)O[C@@]23C(=O)O)cs1 [Compound I-040] |  |  |  |  | MIC (E. coli SR09613): 4 µg/mL (≈ 7.48 µM)
6 | CCO/N=C(\C(=O)N[C@@H]1C(=O)N2[C@@H]1[S@@+]([O-])C[C@@H]1CC(=O)O[C@@]12C(=O)O)c1csc(N)n1 [Compound I-019] | 0.5 (≈ 1.06 µM) | 0.5 (≈ 1.06 µM) | 8 (≈ 17 µM) | 1 (≈ 2.12 µM) | 
7 | COC(=O)NCCO/N=C(\C(=O)N[C@@H]1C(=O)N2[C@@H]1[S@@+]([O-])C[C@@H]1CC(=O)O[C@@]12C(=O)[O-])c1csc(N)n1.[Na+] [Compound I-064] |  | 2 |  |  | 
8 | CC(C)[C@H](O/N=C(\C(=O)N[C@@H]1C(=O)N2[C@@H]1[S@@+]([O-])C[C@@H]1CC(=O)O[C@@]12C(=O)O)c1csc(N)n1)C(=O)O [Compound I-022] |  | 1 (≈ 1.84 µM) |  | 0.5 (≈ 0.92 µM) | 
9 | Nc1nc(/C(=N/O)C(=O)N[C@@H]2C(=O)N3[C@@H]2[S@@+]([O-])C[C@@H]2CC(=O)O[C@@]23C(=O)O)cs1 [Compound I-024] |  | 2 (≈ 4.51 µM) |  | 4 (≈ 9.02 µM) | 
10 | CC[C@H](O/N=C(\C(=O)N[C@@H]1C(=O)N2[C@@H]1[S@@+]([O-])C[C@@H]1CC(=O)O[C@@]12C(=O)O)c1csc(N)n1)C(=O)O [Compound I-009] | 0.5 (≈ 0.944 µM) | 0.5 (≈ 0.944 µM) | 4 (≈ 7.55 µM) | 0.25 (≈ 0.472 µM) | 
11 | Nc1nc(/C(=N/OCC(=O)O)C(=O)N[C@@H]2C(=O)N3[C@@H]2[S@@+]([O-])C[C@@H]2CC(=O)O[C@@]23c2nnn[nH]2)cs1 [Compound I-046] | 1 (≈ 1.9 µM) | 0.5 (≈ 0.952 µM) |  | 0.5 (≈ 0.952 µM) | 
12 | CC(CO)(CO)O/N=C(\C(=O)N[C@@H]1C(=O)N2[C@@H]1[S@@+]([O-])C[C@@H]1CC(=O)O[C@@]12C(=O)O)c1csc(N)n1 [Compound I-045] | 0.5 (≈ 0.941 µM) | 0.25 (≈ 0.47 µM) | 8 (≈ 15.1 µM) | 2 (≈ 3.76 µM) | MIC (E. coli SR09613): 0.25 µg/mL (≈ 0.47 µM)
13 | CCO/N=C(\C(=O)N[C@@H]1C(=O)N2[C@@H]1S(=O)(=O)C[C@@H]1CC(=O)O[C@@]12C(=O)[O-])c1csc(N)n1.[Na+] [Compound I-071] | 2 | 1 | 8 | 4 | 
14 | CC(=O)NCCO/N=C(\C(=O)N[C@@H]1C(=O)N2[C@@H]1[S@@+]([O-])C[C@@H]1CC(=O)O[C@@]12C(=O)O)c1csc(N)n1 [Compound I-054] |  |  |  |  | minimum inhibitory concentration (MIC), Strain No. 1 (E. cloacae ATCC13047): 1 µg/mL (≈ 1.89 µM); minimum inhibitory concentration (MIC), Strain No. 3 (K. pneumoniae SR01453): 0.5 µg/mL (≈ 0.946 µM); minimum inhibitory concentration (MIC), Strain No. 5 (E. cloacae SR36276): 4 µg/mL (≈ 7.57 µM); minimum inhibitory concentration (MIC), Strain No. 6 (E. coli SR09613): 0.5 µg/mL (≈ 0.946 µM)
15 | Nc1nc(/C(=N/OCCF)C(=O)N[C@@H]2C(=O)N3[C@@H]2[S@@+]([O-])C[C@@H]2CC(=O)O[C@@]23C(=O)O)cs1 [Compound I-010] | 0.25 (≈ 0.511 µM) | 0.25 (≈ 0.511 µM) | 8 (≈ 16.3 µM) | 1 (≈ 2.04 µM) | 
